Molecules are shown by their SMILES. Several values for one entry are separate records, joined by “and”; a condition that tells them apart may be missing. Equal values may be shown once.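 These data come from cells grown in 96-well plates and exposed to compound for 48 hours at five concentrations. GI50 = concentration required for 50% inhibition of growth. TGI denotes the concentration required for complete inhibition of growth.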 Some results are limits rather than exact numbers.

Test systems include NCI-H522 lung; COLO 205 colon; U251 CNS; OVCAR-4 ovarian; HCT-116 colon; OVCAR-3 ovarian; MALME-3M melanoma; 786-0 renal; SF-295 CNS; LOX IMVI melanoma.
Test in all cases: NCI-60 cell line screen, 48 h

Consider `O=C(NC(=Nc1ccccc1)SCSC(=Nc1ccccc1)NC(=O)c1ccco1)c1ccco1`, for which the TGI with NCI-H522 lung is 91.5 µM; in the assay on COLO 205 colon it was > 100 µM; with U251 CNS, > 100 µM; with OVCAR-4 ovarian it was > 100 µM; in the assay on HCT-116 colon, > 100 µM; in the assay with OVCAR-3 ovarian, > 100 µM. Besides, the TGI was > 100 µM with MALME-3M melanoma, > 100 µM in the assay on 786-0 renal, 78.4 µM in the assay on SF-295 CNS and > 100 µM in the assay with LOX IMVI melanoma.

As to `O=C1C=C(Nc2ccccc2C(=O)CC(=O)C(=O)Nc2ccc(Cl)cc2)c2ccccc2C1=O`, the TGI in the assay on NCI-H522 lung turned out to be 26.1 µM; in the assay with COLO 205 colon it was 34.5 µM; in the assay with U251 CNS, 68.2 µM; with OVCAR-4 ovarian, 37 µM; with HCT-116 colon, 28.8 µM; in the assay on OVCAR-3 ovarian it was 9.29 µM. For the same molecule, the TGI in the assay on MALME-3M melanoma is 24.1 µM; with 786-0 renal, 62.1 µM; in the assay on LOX IMVI melanoma it was 4.98 µM.

As for `CNS(=O)(=O)OCC1OC(n2cnc3cncnc32)C(O)C1O` (configuration not stated), the GI50 with NCI-H522 lung, in the assay with COLO 205 colon, with U251 CNS, in the assay on OVCAR-4 ovarian, in the assay with HCT-116 colon and in the assay on OVCAR-3 ovarian was > 100 µM each time. Besides, the GI50 in the assay on MALME-3M melanoma, in the assay on 786-0 renal, with SF-295 CNS and in the assay with LOX IMVI melanoma was > 100 µM each time. The TGI in the assay on NCI-H522 lung, in the assay on COLO 205 colon, in the assay on U251 CNS, with OVCAR-4 ovarian, in the assay on HCT-116 colon and with OVCAR-3 ovarian was > 100 µM in each case. Moreover, the TGI in the assay on MALME-3M melanoma, in the assay on 786-0 renal, in the assay with SF-295 CNS and in the assay on LOX IMVI melanoma was > 100 µM each time.

For the molecule `COc1cc2c(NCCCCCO)ncnc2c(OC)c1OC`, the TGI with NCI-H522 lung, in the assay with COLO 205 colon, in the assay on U251 CNS, in the assay with OVCAR-4 ovarian, with HCT-116 colon and with OVCAR-3 ovarian was > 100 µM throughout. For the same molecule, the TGI with MALME-3M melanoma, in the assay with 786-0 renal, in the assay with SF-295 CNS and in the assay on LOX IMVI melanoma was > 100 µM throughout.

As for `COC(=O)c1ccc2nc(-c3cc4ccccc4n3C)n(CCCCOc3cc4c(cc3OC)C(=O)N3CCC[C@H]3C=N4)c2c1`, the GI50 is 0.291 µM in the assay on NCI-H522 lung; 0.575 µM with COLO 205 colon; 0.632 µM in the assay on U251 CNS; 1.54 µM in the assay with OVCAR-4 ovarian; 0.528 µM in the assay with HCT-116 colon; 0.214 µM with OVCAR-3 ovarian. In addition, the GI50 in the assay with MALME-3M melanoma was 1.07 µM; in the assay on 786-0 renal it was 0.789 µM; in the assay on SF-295 CNS, 0.667 µM; with LOX IMVI melanoma, 0.592 µM. For the same molecule, the TGI turned out to be 1.1 µM with NCI-H522 lung; 1.46 µM in the assay with COLO 205 colon; 2.08 µM in the assay on U251 CNS; 11.4 µM in the assay on OVCAR-4 ovarian; 2.61 µM in the assay with HCT-116 colon; 0.51 µM with OVCAR-3 ovarian. The TGI with MALME-3M melanoma was 2.83 µM; with 786-0 renal, 2.46 µM; in the assay with SF-295 CNS, 4.85 µM; in the assay on LOX IMVI melanoma, 1.74 µM.

With `Cc1ccc(F)c(NC(=O)Nc2ccc(-c3cccc4[nH]nc(N)c34)cc2)c1`, the GI50 with NCI-H522 lung is 1.87 µM and 2.19 µM; with COLO 205 colon it was 2.21 µM and 2.27 µM; in the assay on U251 CNS, 3.49 µM and 3.16 µM; in the assay on OVCAR-4 ovarian, 3.1 µM and 3.8 µM; in the assay with HCT-116 colon it was 3.12 µM and 3.5 µM; in the assay on OVCAR-3 ovarian, 2.85 µM and 3.15 µM. The GI50 is 4.24 µM and 2.64 µM in the assay with MALME-3M melanoma; 3.58 µM and 4.22 µM in the assay with 786-0 renal; 2.55 µM and 3.48 µM in the assay on SF-295 CNS; 1.8 µM and 2.03 µM with LOX IMVI melanoma. In addition, the TGI is 3.79 µM and 5.28 µM with NCI-H522 lung; 4.32 µM and 4.9 µM with COLO 205 colon; 20.6 µM and > 10 µM with U251 CNS; 17.1 µM and > 10 µM in the assay with OVCAR-4 ovarian; 11.4 µM and > 10 µM in the assay with HCT-116 colon; 7.76 µM and > 10 µM in the assay on OVCAR-3 ovarian. Further, the TGI in the assay on MALME-3M melanoma is 16.4 µM and 7.36 µM; in the assay with 786-0 renal, 18 µM and > 10 µM; in the assay on SF-295 CNS it was 12.3 µM and > 10 µM; in the assay with LOX IMVI melanoma, 3.62 µM and 4.97 µM.

With `O=C1C(=c2ccc(=C3C(=O)c4ccc([N+](=O)[O-])cc4[N+]3=O)cc2)N([O-])c2cc([N+](=O)[O-])ccc21`, the GI50 in the assay on NCI-H522 lung, in the assay on COLO 205 colon, in the assay with U251 CNS, in the assay with OVCAR-4 ovarian, with HCT-116 colon and with OVCAR-3 ovarian was > 100 µM throughout. For the same molecule, the GI50 in the assay with MALME-3M melanoma and in the assay on LOX IMVI melanoma was > 100 µM in each case. Further, the TGI in the assay with NCI-H522 lung, in the assay on COLO 205 colon, with U251 CNS, with OVCAR-4 ovarian, with HCT-116 colon and in the assay on OVCAR-3 ovarian was > 100 µM in each case. Besides, the TGI in the assay on MALME-3M melanoma, with 786-0 renal and with LOX IMVI melanoma was > 100 µM throughout.

With `C/C(=N\NC(=S)N1CCN(c2ccccn2)CC1)c1ccccn1`, the GI50 is 0.179 µM in the assay with NCI-H522 lung; < 0.0161 µM in the assay with U251 CNS; 1.08 µM in the assay on OVCAR-4 ovarian; 0.406 µM in the assay with MALME-3M melanoma; 0.00656 µM in the assay with 786-0 renal; 0.0129 µM in the assay on SF-295 CNS. Besides, the TGI with NCI-H522 lung is 0.71 µM and 2.07 µM; in the assay on U251 CNS it was 12.9 µM; with OVCAR-4 ovarian, 12.6 µM; in the assay on HCT-116 colon, 13.8 µM; in the assay on OVCAR-3 ovarian, 14.2 µM; in the assay on MALME-3M melanoma, 12.8 µM. The TGI with 786-0 renal amounted to 13.5 µM; with SF-295 CNS, 12.4 µM; with LOX IMVI melanoma, 14.4 µM.

In the case of `O=C(O)CN(c1ccccc1)S(=O)(=O)c1cccc([N+](=O)[O-])c1`, the TGI in the assay on NCI-H522 lung, in the assay on COLO 205 colon, in the assay with U251 CNS, with OVCAR-4 ovarian, in the assay on OVCAR-3 ovarian and with MALME-3M melanoma was > 100 µM in each case. Further, the TGI in the assay on 786-0 renal, with SF-295 CNS and in the assay on LOX IMVI melanoma was > 100 µM each time.

Consider `COc1cc2c3c(n(CCCN(CCCN(CCCn4c5c(c6ccccc6c4=O)C(=O)c4ccccc4-5)C(=O)OC(C)(C)C)C(=O)OC(C)(C)C)c(=O)c2cc1OC)-c1cc2c(cc1C3=O)OCO2`, for which the GI50 in the assay with NCI-H522 lung, in the assay on COLO 205 colon, in the assay with U251 CNS, in the assay with OVCAR-4 ovarian, in the assay with HCT-116 colon and with MALME-3M melanoma was > 100 µM each time. Moreover, the GI50 is > 100 µM in the assay with 786-0 renal, > 100 µM in the assay on SF-295 CNS and 26.5 µM with LOX IMVI melanoma. Also, the TGI in the assay with NCI-H522 lung, in the assay on COLO 205 colon, in the assay with U251 CNS, with OVCAR-4 ovarian, in the assay on HCT-116 colon and in the assay on MALME-3M melanoma was > 100 µM in each case. Also, the TGI in the assay with 786-0 renal, with SF-295 CNS and in the assay on LOX IMVI melanoma was > 100 µM each time.

With `CC(=O)c1ccccc1NC(=O)C(=O)C(C(=O)c1ccc2ccccc2c1)C1OC(=O)c2ccccc21` (configuration not stated), the TGI worked out at 29.2 µM in the assay with NCI-H522 lung; 30.2 µM in the assay on COLO 205 colon; 40.7 µM with U251 CNS; 57 µM in the assay on OVCAR-4 ovarian; 29.6 µM in the assay with HCT-116 colon; 54.3 µM with OVCAR-3 ovarian. The TGI with MALME-3M melanoma was found to be 23.3 µM; with 786-0 renal, 20.9 µM; in the assay with LOX IMVI melanoma, 26.4 µM.

Consider `COC(=O)[C@H](CC(C)C)NC(=O)[C@H](Cc1ccccc1)N1CC2C=CC1C2` (some centres not stated), for which the TGI in the assay with NCI-H522 lung, in the assay with COLO 205 colon, with U251 CNS, in the assay on OVCAR-4 ovarian, with OVCAR-3 ovarian and in the assay on MALME-3M melanoma was > 100 µM in each case. The TGI in the assay on 786-0 renal, in the assay with SF-295 CNS and in the assay with LOX IMVI melanoma was > 100 µM throughout.

For `O=C(CCCn1c2c(sc3ccccc32)c(=O)n2nnc(-c3ccccc3)c12)NCCc1cnc[nH]1`, the GI50 in the assay on NCI-H522 lung was 0.0346 µM; in the assay with COLO 205 colon, 0.299 µM; in the assay on U251 CNS, 0.128 µM; in the assay with OVCAR-4 ovarian, 1.84 µM; in the assay with OVCAR-3 ovarian, 2.01 µM; in the assay on MALME-3M melanoma, 1.88 µM. In addition, the GI50 was 0.594 µM in the assay on 786-0 renal, 0.456 µM in the assay on SF-295 CNS and 0.28 µM in the assay on LOX IMVI melanoma. The TGI was 2.79 µM with NCI-H522 lung; 2.35 µM with COLO 205 colon; 1.75 µM in the assay on U251 CNS; 4.33 µM in the assay on OVCAR-4 ovarian; 5.41 µM in the assay with OVCAR-3 ovarian; 3.58 µM with MALME-3M melanoma. Also, the TGI in the assay with 786-0 renal is 1.79 µM; with SF-295 CNS it was 2.11 µM; in the assay on LOX IMVI melanoma, 2.49 µM.

As for `CC1(C)NC(=O)N(CCCCCCN2C(=O)NC(C)(C)C2=O)C1=O`, the TGI in the assay on NCI-H522 lung, with COLO 205 colon, with U251 CNS, in the assay on OVCAR-4 ovarian, in the assay with HCT-116 colon and with MALME-3M melanoma was > 100 µM throughout. In addition, the TGI in the assay on 786-0 renal and with LOX IMVI melanoma was > 100 µM in each case.

Values taken from PubChem BioAssay (NCI).
